The values below come from patent US5817332A, “Transdermal drug delivery system” (priority 1994, dated 1998).

Molecules are shown by their SMILES. Converted amounts (≈) assume the structure as drawn. Like-named read-outs stand apart in the source and are kept apart here.

The conditions of data set [1]: as pH is increased; cited from earlier work.
Data set [2] is described as follows: In vitro release of DEX from silicone depot patches in diffusion cells. Format: physicochemical. The following applies: trisodium phosphate in device core. As to the method:
The effect of cyclodextrin on the release rate of DEX was determined using reservoir-type silicone depot patches. Typical composition of the reservoir containing the drug and CD in molar ratio 1:1 was:
______________________________________
DEX HCl 200 μg (170 μg DEX base)
Tris-buffer (TRIS), trisodium phosphate (TP), disodium phosphate (DP), sodium phosphate (MP) or the mixture of disodium and sodium phosphates (50/50) (MP/DP) were used to buffer the devices. 2-HP-β-CD was added to the device in three different ways:
1) without precomplexation with DEX
2) using an inclusion complex of DEX and CD prepared by grinding
3) using an inclusion complex of DEX and CD prepared by spray-drying
In some patches the amount of pH-adjusting agent (DP) was decreased from 1600 μg to 200 μg or 2-HP-γ-CD was used instead of β-derivative.
Silicone membranes for the devices were made of MDX-4-4210 medical grade elastomer (Dow Corning, Midland, […].) by mixing 10% (w/w) MDX-4240 curing agent with the elastomer. […]
In vitro release of DEX from the devices was determined in diffusion cells at 34 ±1° C. […] At predetermined times, samples of 250 μl were withdrawn, replaced by fresh buffer solution, and the concentration of DEX in the samples was analyzed by RP-HPLC. After each release experiment pH in the devices was measured with a microelectrode.

Data set [3] is described as follows: Phase-solubility of dexmedetomidine in aqueous 2-HP-β-CD solutions (phosphate buffers, 32 °C). Format: physicochemical. The conditions noted are these: for solubility at 240 h: phosphate buffer with 2-hp-β-cd, 32° C., read-out: DEX solubility. As to the method:
The excess amount of the drug was added to pH 6.0, 7.0 and 8.0 phosphate buffers (142 mM) and the pHs of the suspensions were readjusted with 0.2M NaOH. The suspensions were shaken at 32° C. in a water bath for 10 days. After equilibration, the saturated solutions of DEX were filtered, diluted and the concentrations of DEX were analyzed by RP-HPLC at 210 nm.

With `Cc1cccc([C@H](C)c2cnc[nH]2)c1C` [DEX, dexmedetomidine], in data set [1], the “aqueous solubility (in words)” value is given as “drops dramatically”. The “increase of DEX release rate by trisodium phosphate” value in data set [2] was “over 180 times”. For the same compound, the “influence of 2-HP-β-CD on solubility of DEX (in words)” value in data set [3] (pH 6.0, 7.0 and 8.0) is on record as “the greatest as the pH of the solutions was highest”. Further, the “improvement of the solubility of DEX by addition of 50% (m/V) 2-HP-β-CD” value in data set [3] (pH 6.0, 7.0 and 8.0 buffers) is listed as 19-99 times. Further, the solubility at 240 h in data set [3] (pH 6, pH 6, 2-HP-β-CD 5 % (m/V) (35 mM)) is 7060 µg/mL (≈ 35.3 mM); in data set [3] (pH 6, pH 6, 2-HP-β-CD 10 % (m/V) (70 mM)) it was 10000 µg/mL (≈ 50 mM); in data set [3] (pH 6, pH 6, 2-HP-β-CD 15 % (m/V) (105 mM)) it was 12800 µg/mL (≈ 63.9 mM); in data set [3] (pH 6, pH 6, 2-HP-β-CD 30 % (m/V) (209 mM)), 20900 µg/mL (≈ 105 mM); in data set [3] (pH 6, pH 6, 2-HP-β-CD 50 % (m/V) (349 mM)), 36800 µg/mL (≈ 184 mM); in data set [3] (pH 7, pH 7, 2-HP-β-CD 5 % (m/V) (35 mM)), 1600 µg/mL (≈ 7.99 mM). Further, the solubility at 240 h in data set [3] (pH 7, pH 7, 2-HP-β-CD 10 % (m/V) (70 mM)) is 3040 µg/mL (≈ 15.2 mM); in data set [3] (pH 7, pH 7, 2-HP-β-CD 15 % (m/V) (105 mM)) it was 4910 µg/mL (≈ 24.5 mM); in data set [3] (pH 7, pH 7, 2-HP-β-CD 30 % (m/V) (209 mM)) it was 9330 µg/mL (≈ 46.6 mM); in data set [3] (pH 7, pH 7, 2-HP-β-CD 50 % (m/V) (349 mM)), 12800 µg/mL (≈ 64.1 mM); in data set [3] (pH 8, pH 8, 2-HP-β-CD 5 % (m/V) (35 mM)), 1230 µg/mL (≈ 6.15 mM); in data set [3] (pH 8, pH 8, 2-HP-β-CD 10 % (m/V) (70 mM)), 2260 µg/mL (≈ 11.3 mM). The solubility at 240 h in data set [3] (pH 8, pH 8, 2-HP-β-CD 15 % (m/V) (105 mM)) was 3770 µg/mL (≈ 18.8 mM); in data set [3] (pH 8, pH 8, 2-HP-β-CD 30 % (m/V) (209 mM)), 7200 µg/mL (≈ 35.9 mM); in data set [3] (pH 8, pH 8, 2-HP-β-CD 50 % (m/V) (349 mM)), 13300 µg/mL (≈ 66.2 mM).
